# Results reported in patent US12655104B2, “Anticancer compounds selective for ER-positive cancers” (THE BOARD OF TRUSTEES OF THE UNIVERSITY OF ILLINOIS, priority 2020, dated 2026).
# Read-outs that look alike come from different tables or passages of the source.
# What was measured:
# ERα− cancer cell lines = experiment: Selectivity of cell killing, ERα+ versus ERα− cancer cell lines; format: cell-based
# Description: (§1) Cancer Cell Lines: Culturing Conditions and Validation. All cell lines were cultured at 37° C. with 5% CO2. All ERα-positive cell lines were grown in media lacking phenol red. MCF-7 were grown in EMEM with 10% FBS and 1% penicillin-streptomycin (P/S). T47D were cultured in MEM with 10% FBS and 1% P/S. TYS and TDG cells were grown in MEM supplemented with 10% CD-FBS and 1% P/S. HCT-116 and MDA-MB-231 cells were cultured in RPMI-1640 supplemented with 10% FBS and 1% P/S. MDA-MB-436 cells were cultured in DMEM supplemented with 10% FBS and 1% P/S. HT-29 were cultured in McCoy's media supplemented with 10% FBS and 1% P/S. All cell lines were used directly from ATCC stocks and/or have been further authenticated using PowerPlex16HS Assay (Promega) as described previously.^54 In short, >1 million cells were harvested and lysed using the cell lysis buffer (50 mM Tris, 50 mM EDTA, 25 mM sucrose, 100 mM NaCl, 1% SDS, pH 8). DNA extraction and short tandem repeats (STRs) profiling for each cell line were carried out at the University of Arizona Genetics Core (UAGC). Autosomal STR profiles were compared to reference databases such as ATCC, DSMZ, and JCRB.
# (§2) Alamar Blue Fluorescence for Anticancer Activity (IC50). 2,000-15,000 cells per well were seeded a 96-well plate. Cells were allowed to adhere before DMSO stock solutions of test compounds were added to each well with a final concentration of DMSO in each well=1%; final volume: 100 μL. At the end of the desired incubation time (e.g., 24 or 72 hours), media in each well was aspirated and new fresh media (no compound, 100 μL) was added. Alamar blue solution (4 mg resazurin per 40 mL PBS) was then added (10 μL). After 2-6 hours incubation, each well's fluorescence (λexcit.=555 nm, λemission.=585 nm) was measured using a SpectraMax M3 plate reader (Molecular Devices). Percent dead was determined by comparison to a 100% dead control: 100 μM raptinal treated cells. Dose dependent curves and IC50 were calculated using Origin Pro V10.
# MDA-MB-231 = experiment: Alamar blue fluorescence viability (IC50), MDA-MB-231; format: cell-based; details: for IC50: Homo sapiens
# Description: as §1, §2
# T47D-ERαD538G (TDG) = experiment: Alamar blue fluorescence viability (IC50), TDG; format: cell-based; details: 24 h, read-out: IC50 24 hr (μM)
# Description: as §1, with “DNA extraction and short tandem repeats (STRs) profiling for each cell line were carried out at the University of Arizona Genetics Core (UAGC). Autosomal STR profiles were compared to reference databases such as ATCC, DSMZ, and JCRB.” left out
# (§3) Alamar Blue Fluorescence for Anticancer Activity (IC50). […] After 2-6 hours incubation, each well's fluorescence (λexcit.=555 nm, λemission.=585 nm) was measured using a SpectraMax M3 plate reader (Molecular Devices). Percent dead was determined by comparison to a 100% dead control: 100 μM raptinal treated cells. Dose dependent curves and IC50 were calculated using Origin Pro V10.
# HCT-116 = experiment: Alamar blue fluorescence viability (IC50), HCT-116; format: cell-based; details: for IC50: Homo sapiens
# Description: as §1, §2
# [1] = Simulated gastric fluid (SGF) stability assay; format: in vitro ADME; details: 100 μM in SGF with pepsin, 120 min
# Outline: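 Compounds added from 10 mM DMSO stock to pepsin-containing SGF (3.2 g pepsin per 1000 mL, pH 1.2) and incubated at 37 °C with periodic vortexing. Values are percent remaining relative to t=0.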
# CD-1 mice = experiment: Maximum tolerated dose (MTD) in mice; format: in vivo
# Source text: (§4) Maximum Tolerated Dose (MTD) Experiments in Mice and Rats. […] Rodents were monitored for signs of distress, lethargy, neurotoxicity, and so forth for multiple days after compound administration. […] The MTD was defined as the maximum dose in which any acute side effects observed were tolerated and no lethality observed.
# [2] = Maximum tolerated dose (MTD) in mice; format: in vivo; details: female, CD-1, in vivo, Mouse, single dose, read-out: MTD
# Source text: as §4
# [3] = system: anticipatory unfolded protein response (a-UPR); experiment: a-UPR immunoblotting/western blot in MCF-7 cells; format: cell-based
# Description: a-UPR Immunoblotting/Western Blot Procedure. 400,000 MCF-7 cells/per well were seeded into 6 or 12 well plates and allowed to adhere overnight. Media was then aspirated from each well and then fresh media with diluted test compound (0.1% DMSO concentration) was added accordingly. Cells were incubated for 4 or 6 hours, then harvested. PBS-washed cell pellets were then lysed using RIPA buffer containing phosphatase (BioVision) and protease inhibitor cocktail (Calbiochem). Protein concentrations were determined using the BCA assay (Pierce). Lysates containing 10-15 μg of protein were loaded onto 4-20% gradient gels (BioRad), and SDS-PAGE was run. Proteins were then transferred onto membrane (PDVF Millipore) and blots blocked with BSA solution (2 g in 40 mL TBST) for one hour. After blocking, primary antibody was added and incubated overnight (using manufacturer's recommended dilutions). Following overnight incubation, blots were washed with TBST (5-minute incubation for each wash, washed 3 times), then incubated with HRP-linked secondary antibody for 1 hour in TBST. Blots were washed (10-minute incubation for each wash for a total of two ten-minute washes). SuperSignal West Pico Solution was then added following manufacturer's procedures and blots imaged with ChemiDoc.
# Antibodies. […]
# MCF-7 cells = experiment: Alamar blue fluorescence viability (IC50), MCF-7; format: cell-based; details: Homo sapiens
# T47D-ERaY537S (TYS) = experiment: Alamar blue fluorescence viability (IC50), TYS; format: cell-based; details: 24 h, read-out: IC50 24 hr (μM)
# Description: as §1, with “DNA extraction and short tandem repeats (STRs) profiling for each cell line were carried out at the University of Arizona Genetics Core (UAGC). Autosomal STR profiles were compared to reference databases such as ATCC, DSMZ, and JCRB.” left out
# as §3
structure (smiles),measurement,setting,value
"O=C1Nc2c(C(F)(F)F)cccc2[C@@]1(c1ccc(O)cc1)N1CCC(F)(F)CC1 (single isomer, unassigned) [ErSO-DFP]",average fold difference between IC50 values of ERα+ and ERα− cancer cell lines,ERα− cancer cell lines; measured at both 24 and 72 hours,> 2750 fold
same,IC50,ERα− cancer cell lines; read-out: IC50 in ERα− cell lines,> 25000 nM
same,Fold Change,MDA-MB-231; Average Fold Change between 24/72 hr IC50 values for MCF-7 and MDA-MB-231,1882
same,IC50,"MDA-MB-231; MDA-MB-231, 24 h, read-out: IC50 24 hr (μM)",55 ± 5 µM
same,IC50,"MDA-MB-231; MDA-MB-231, 72 h, read-out: IC50 72 hr (μM)",32 ± 4 µM
same,IC50,T47D-ERαD538G (TDG),0.009 ± 0.001 µM
same,Fold Change,HCT-116; Average Fold Change between 24/72 hr IC50 values for MCF-7 and HCT-116,3235
same,effects bottom out at (% cell death at lower concentrations),"HCT-116; HCT-116 cells, bottom of IC50 curve",~0%
same,IC50,"HCT-116; HCT-116, 24 h, read-out: IC50 24 hr (μM)",55 µM
same,IC50,"HCT-116; HCT-116, 72 h, read-out: IC50 72 hr (μM)",55 µM
same,% Remaining after 120 min (SD),[1],13±1%
same,Fold Increase Rel. to ErSO (MTD),"CD-1 mice; Mouse, I.V.",4.8
same,fold increase in tolerability relative to ErSO,"CD-1 mice; both mice and rats, administered intravenously",~5 fold
same,MTD,"[2]; iv, I.V.",95 mg/kg
same,MTD,"[2]; po, P.O.",> 200 mg/kg
same,"a-UPR activation (P-AMPK, P-EIF2α, cleavage of ATF6α p90), western blot",[3],activates the a-UPR in a time- and concentration-dependent manner
same,IC50,"MCF-7 cells; MCF7, 24 h, read-out: IC50 24 hr (μM)",0.017 ± 0.002 µM
same,IC50,"MCF-7 cells; MCF7, 72 h, read-out: IC50 72 hr (μM)",0.017 ± 0.001 µM
same,IC50,"MCF-7 cells; MCF7, read-out: pIC50 (converted)",0.017 µM
same,IC50,T47D-ERaY537S (TYS),0.007 ± 0.001 µM
